Data taken from patent US20020137929A1, “1 - (3-heterocyclylphenyl) isothiourea, -isourea, -guanidine and -amidine herbicidal agents” (Intellectual Property Department, BASF Aktiengesellschaft, priority 1998, published 2002).

What was measured:
[1] = test system: TRZAWR (Wheat, Winter, cv Riband); assay: Postemergence herbicidal evaluation; format: in vivo, Triticum aestivum; details: postemergence
In short: (§1)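 Herbicidal effect was judged by eye on a 0–9 scale covering stand, vigor, deformity, size and chlorosis, compared with controls, four to five weeks after seedlings about two weeks old were sprayed (40 psi, ~0.0156–0.500 kg/ha).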

ABUTH (Velvetleaf) = assay: Postemergence herbicidal evaluation; format: in vivo, Abutilon theophrasti; details: postemergence
In short: as §1

[2] = test system: ECHORC (Watergrass (Calif.)); assay: Postemergence weed control under flooded paddy conditions; format: in vivo, Echinochloa oryzoides; details: postemergence weeds, rated 3 to 4 weeks after treatment
In short: (§2)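 With weeds 3 to 5 cm tall and rice at the 1.5 to 2.5 leaf stage, containers were flooded and water held 1.5 to 3 cm above soil. Compounds in 50/50 v/v aqueous/acetone went into the flood water at about 0.0313 to 0.500 kg/ha a.i. Effects were visually rated 0–9 against controls after three to four weeks in the greenhouse.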

[3] = test system: IPOHE (Morningglory, Ivyleaf); assay: Preemergence herbicidal evaluation; format: in vivo, Ipomoea hederacea; details: rated 4-5 weeks after treatment
In short: (§3)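 Preemergence soil application of compound, sprayed in aqueous acetone at rates equivalent to about 0.0156 to 0.500 kg per hectare onto freshly sown cups. Plant response was judged by eye on a 0-9 scale four to five weeks later.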

[4] = test system: IPOHE (Morningglory, Ivyleaf); assay: Postemergence herbicidal evaluation; format: in vivo, Ipomoea hederacea; details: postemergence
In short: as §1

[5] = test system: CHEAL (Lambsquarters, Common); assay: Preemergence herbicidal evaluation; format: in vivo, Chenopodium album; details: rated 4-5 weeks after treatment
In short: as §3

SETVI (Foxtail, Green) = assay: Preemergence herbicidal evaluation; format: in vivo, Setaria viridis; details: rated 4-5 weeks after treatment
In short: as §3

CYPIR (Rice Flatsedge) = assay: Postemergence weed control under flooded paddy conditions; format: in vivo, Cyperus iria; details: postemergence weeds, rated 3 to 4 weeks after treatment
In short: as §2

[6] = test system: TRZAWR (Wheat, Winter, cv Riband); assay: Preemergence herbicidal evaluation; format: in vivo, Triticum aestivum; details: rated 4-5 weeks after treatment
In short: as §3

ECHCG (Barnyardgrass) = assay: Preemergence herbicidal evaluation; format: in vivo, Echinochloa crus-galli; details: rated 4-5 weeks after treatment
In short: as §3

ORYSAT (Rice, Tebonnet) = assay: Preemergence herbicidal evaluation; format: in vivo, Oryza sativa, (L.) Tebonnet; details: rated 4-5 weeks after treatment
In short: as §3

[7] = test system: ECHORC (Watergrass (Calif.)); assay: Preemergence weed control under flooded paddy conditions; format: in vivo, Echinochloa oryzoides; details: rated 3-4 weeks after treatment
In short: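 Seeds or propagules sown in silt loam kept flooded 1.5-3 cm; compounds in 50/50 acetone/water pipetted into flood water at about 0.0313 to 0.500 kg/ha. Greenhouse; visual 0-9 rating versus untreated control 3-4 weeks after treatment.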

MOOVA (Monochoria) = assay: as above; format: in vivo, Monochoria vaginalis; details: rated 3-4 weeks after treatment
In short: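 Flooded-pot preemergence screen with silt loam and seeds in the upper 0.5 cm. Dose about 0.0313 to 0.500 kg/ha, delivered into flood water; visual 0-9 score after 3 to 4 weeks.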

C#CCOC(=O)CC1SC(=Nc2cc(-n3c(=O)cc(C(F)(F)F)n(C)c3=O)c(F)cc2Cl)N(CC=C)C1=O (centres unmarked) [Compound 67, 2-Propynyl 3-allyl-2-{{2-chloro-5-[3,6-dihydro-3-methyl-2,6-dioxo-4-(trifluoromethyl)-1(2H)-pyrimidinyl]-4-fluorophenyl}imino}-4-oxo-5-thiazolidineacetate]
TRZAWR herbicidal rating ([1]; rate 0.0158 kg/ha): 5.0
TRZAWR herbicidal rating ([1]; rate 0.0315 kg/ha): 6.0
TRZAWR herbicidal rating ([1]; rate 0.0630 kg/ha): 6.5
ABUTH herbicidal rating (ABUTH (Velvetleaf); rate 0.0158 kg/ha): 5.0
ABUTH herbicidal rating (ABUTH (Velvetleaf); rate 0.0315 kg/ha): 9.0
ABUTH herbicidal rating (ABUTH (Velvetleaf); rate 0.0630 kg/ha): 9.0
Herbicidal rating ECHORC ([2]; Rate 0.0313 kg/ha): 0.0
Herbicidal rating ECHORC ([2]; Rate 0.0625 kg/ha): 4.0
Herbicidal rating ECHORC ([2]; Rate 0.1250 kg/ha): 5.0
Herbicidal rating ECHORC ([2]; Rate 0.2500 kg/ha): 5.0
Preemergence herbicidal rating IPOHE ([3]; rate 0.0156 kg/ha): 0.0
Preemergence herbicidal rating IPOHE ([3]; rate 0.0313 kg/ha): 0.0
Preemergence herbicidal rating IPOHE ([3]; rate 0.0625 kg/ha): 2.0
Preemergence herbicidal rating IPOHE ([3]; rate 0.1250 kg/ha): 3.0
Preemergence herbicidal rating IPOHE ([3]; rate 0.2500 kg/ha): 6.0
IPOHE herbicidal rating ([4]; rate 0.0158 kg/ha): 9.0
IPOHE herbicidal rating ([4]; rate 0.0315 kg/ha): 9.0
IPOHE herbicidal rating ([4]; rate 0.0630 kg/ha): 9.0
Preemergence herbicidal rating CHEAL ([5]; rate 0.0156 kg/ha): 2.0
Preemergence herbicidal rating CHEAL ([5]; rate 0.0313 kg/ha): 9.0
Preemergence herbicidal rating CHEAL ([5]; rate 0.0625 kg/ha): 9.0
Preemergence herbicidal rating CHEAL ([5]; rate 0.1250 kg/ha): 9.0
Preemergence herbicidal rating CHEAL ([5]; rate 0.2500 kg/ha): 9.0
Preemergence herbicidal rating SETVI (SETVI (Foxtail, Green); rate 0.0156 kg/ha): 0.0
Preemergence herbicidal rating SETVI (SETVI (Foxtail, Green); rate 0.0313 kg/ha): 0.0
Preemergence herbicidal rating SETVI (SETVI (Foxtail, Green); rate 0.0625 kg/ha): 0.0
Preemergence herbicidal rating SETVI (SETVI (Foxtail, Green); rate 0.1250 kg/ha): 6.0
Preemergence herbicidal rating SETVI (SETVI (Foxtail, Green); rate 0.2500 kg/ha): 7.0
Herbicidal rating CYPIR (CYPIR (Rice Flatsedge); Rate 0.0313 kg/ha): 5.0
Herbicidal rating CYPIR (CYPIR (Rice Flatsedge); Rate 0.0625 kg/ha): 5.0
Herbicidal rating CYPIR (CYPIR (Rice Flatsedge); Rate 0.1250 kg/ha): 5.0
Herbicidal rating CYPIR (CYPIR (Rice Flatsedge); Rate 0.2500 kg/ha): 8.0
Preemergence herbicidal rating TRZAWR ([6]; rate 0.0156 kg/ha): 0.0
Preemergence herbicidal rating TRZAWR ([6]; rate 0.0313 kg/ha): 0.0
Preemergence herbicidal rating TRZAWR ([6]; rate 0.0625 kg/ha): 0.0
Preemergence herbicidal rating TRZAWR ([6]; rate 0.1250 kg/ha): 1.0
Preemergence herbicidal rating TRZAWR ([6]; rate 0.2500 kg/ha): 1.0
Preemergence herbicidal rating ECHCG (ECHCG (Barnyardgrass); rate 0.0156 kg/ha): 0.0
Preemergence herbicidal rating ECHCG (ECHCG (Barnyardgrass); rate 0.0313 kg/ha): 0.0
Preemergence herbicidal rating ECHCG (ECHCG (Barnyardgrass); rate 0.0625 kg/ha): 0.0
Preemergence herbicidal rating ECHCG (ECHCG (Barnyardgrass); rate 0.1250 kg/ha): 1.0
Preemergence herbicidal rating ECHCG (ECHCG (Barnyardgrass); rate 0.2500 kg/ha): 1.0
Preemergence herbicidal rating ORYSAT (ORYSAT (Rice, Tebonnet); rate 0.0156 kg/ha): 0.0
Preemergence herbicidal rating ORYSAT (ORYSAT (Rice, Tebonnet); rate 0.0313 kg/ha): 0.0
Preemergence herbicidal rating ORYSAT (ORYSAT (Rice, Tebonnet); rate 0.0625 kg/ha): 0.0
Preemergence herbicidal rating ORYSAT (ORYSAT (Rice, Tebonnet); rate 0.1250 kg/ha): 1.0
Preemergence herbicidal rating ORYSAT (ORYSAT (Rice, Tebonnet); rate 0.2500 kg/ha): 1.0
ECHORC herbicidal effect rating ([7]; 0.0313 kg/ha): 0.0
ECHORC herbicidal effect rating ([7]; 0.0625 kg/ha): 4.0
ECHORC herbicidal effect rating ([7]; 0.1250 kg/ha): 5.0
ECHORC herbicidal effect rating ([7]; 0.2500 kg/ha): 5.0
MOOVA herbicidal effect rating (MOOVA (Monochoria); 0.0313 kg/ha): 9.0
MOOVA herbicidal effect rating (MOOVA (Monochoria); 0.0625 kg/ha): 9.0
MOOVA herbicidal effect rating (MOOVA (Monochoria); 0.1250 kg/ha): 9.0
MOOVA herbicidal effect rating (MOOVA (Monochoria); 0.2500 kg/ha): 9.0

CCOC(=O)CN1C(=O)C(CC(=O)Nc2ccccc2)SC1=Nc1cc(-n2c(=O)cc(C(F)(F)F)n(C)c2=O)c(F)cc1Cl (centres unmarked) [Compound 68, Ethyl 2-{{2-chloro-5-[3,6-dihydro-3-methyl-2,6-dioxo-4-(trifluoromethyl)-1(2H)-pyrimidinyl]-4-fluorophenyl}imino}-4-oxo-5-[(phenylcarbamoyl)-methyl]-3-thiazolidineacetate]
TRZAWR herbicidal rating ([1]; rate 0.0158 kg/ha): 3.0
TRZAWR herbicidal rating ([1]; rate 0.0315 kg/ha): 3.5
TRZAWR herbicidal rating ([1]; rate 0.0630 kg/ha): 4.0
ABUTH herbicidal rating (ABUTH (Velvetleaf); rate 0.0158 kg/ha): 7.0
ABUTH herbicidal rating (ABUTH (Velvetleaf); rate 0.0315 kg/ha): 9.0
ABUTH herbicidal rating (ABUTH (Velvetleaf); rate 0.0630 kg/ha): 7.0
Herbicidal rating ECHORC ([2]; Rate 0.0313 kg/ha): 0.0
Herbicidal rating ECHORC ([2]; Rate 0.0625 kg/ha): 5.0
Herbicidal rating ECHORC ([2]; Rate 0.1250 kg/ha): 7.0
Herbicidal rating ECHORC ([2]; Rate 0.2500 kg/ha): 7.0
Preemergence herbicidal rating IPOHE ([3]; rate 0.0156 kg/ha): 0.0
Preemergence herbicidal rating IPOHE ([3]; rate 0.0313 kg/ha): 0.0
Preemergence herbicidal rating IPOHE ([3]; rate 0.0625 kg/ha): 0.0
Preemergence herbicidal rating IPOHE ([3]; rate 0.1250 kg/ha): 0.0
Preemergence herbicidal rating IPOHE ([3]; rate 0.2500 kg/ha): 6.0
IPOHE herbicidal rating ([4]; rate 0.0158 kg/ha): 9.0
IPOHE herbicidal rating ([4]; rate 0.0315 kg/ha): 9.0
IPOHE herbicidal rating ([4]; rate 0.0630 kg/ha): 9.0
Preemergence herbicidal rating CHEAL ([5]; rate 0.0156 kg/ha): 2.0
Preemergence herbicidal rating CHEAL ([5]; rate 0.0313 kg/ha): 9.0
Preemergence herbicidal rating CHEAL ([5]; rate 0.0625 kg/ha): 9.0
Preemergence herbicidal rating CHEAL ([5]; rate 0.1250 kg/ha): 9.0
Preemergence herbicidal rating CHEAL ([5]; rate 0.2500 kg/ha): 9.0
Preemergence herbicidal rating SETVI (SETVI (Foxtail, Green); rate 0.0156 kg/ha): 0.0
Preemergence herbicidal rating SETVI (SETVI (Foxtail, Green); rate 0.0313 kg/ha): 0.0
Preemergence herbicidal rating SETVI (SETVI (Foxtail, Green); rate 0.0625 kg/ha): 0.0
Preemergence herbicidal rating SETVI (SETVI (Foxtail, Green); rate 0.1250 kg/ha): 0.0
Preemergence herbicidal rating SETVI (SETVI (Foxtail, Green); rate 0.2500 kg/ha): 2.0
Herbicidal rating CYPIR (CYPIR (Rice Flatsedge); Rate 0.0313 kg/ha): 0.0
Herbicidal rating CYPIR (CYPIR (Rice Flatsedge); Rate 0.0625 kg/ha): 0.0
Herbicidal rating CYPIR (CYPIR (Rice Flatsedge); Rate 0.1250 kg/ha): 5.0
Herbicidal rating CYPIR (CYPIR (Rice Flatsedge); Rate 0.2500 kg/ha): 8.0
Preemergence herbicidal rating TRZAWR ([6]; rate 0.0156 kg/ha): 0.0
Preemergence herbicidal rating TRZAWR ([6]; rate 0.0313 kg/ha): 0.0
Preemergence herbicidal rating TRZAWR ([6]; rate 0.0625 kg/ha): 0.0
Preemergence herbicidal rating TRZAWR ([6]; rate 0.1250 kg/ha): 0.0
Preemergence herbicidal rating TRZAWR ([6]; rate 0.2500 kg/ha): 1.0
Preemergence herbicidal rating ECHCG (ECHCG (Barnyardgrass); rate 0.0156 kg/ha): 0.0
Preemergence herbicidal rating ECHCG (ECHCG (Barnyardgrass); rate 0.0313 kg/ha): 0.0
Preemergence herbicidal rating ECHCG (ECHCG (Barnyardgrass); rate 0.0625 kg/ha): 0.0
Preemergence herbicidal rating ECHCG (ECHCG (Barnyardgrass); rate 0.1250 kg/ha): 0.0
Preemergence herbicidal rating ECHCG (ECHCG (Barnyardgrass); rate 0.2500 kg/ha): 1.0
Preemergence herbicidal rating ORYSAT (ORYSAT (Rice, Tebonnet); rate 0.0156 kg/ha): 0.0
Preemergence herbicidal rating ORYSAT (ORYSAT (Rice, Tebonnet); rate 0.0313 kg/ha): 0.0
Preemergence herbicidal rating ORYSAT (ORYSAT (Rice, Tebonnet); rate 0.0625 kg/ha): 0.0
Preemergence herbicidal rating ORYSAT (ORYSAT (Rice, Tebonnet); rate 0.1250 kg/ha): 0.0
Preemergence herbicidal rating ORYSAT (ORYSAT (Rice, Tebonnet); rate 0.2500 kg/ha): 1.0
ECHORC herbicidal effect rating ([7]; 0.0313 kg/ha): 0.0
ECHORC herbicidal effect rating ([7]; 0.0625 kg/ha): 5.0
ECHORC herbicidal effect rating ([7]; 0.1250 kg/ha): 7.0
ECHORC herbicidal effect rating ([7]; 0.2500 kg/ha): 7.0
MOOVA herbicidal effect rating (MOOVA (Monochoria); 0.0313 kg/ha): 3.0
MOOVA herbicidal effect rating (MOOVA (Monochoria); 0.0625 kg/ha): 9.0
MOOVA herbicidal effect rating (MOOVA (Monochoria); 0.1250 kg/ha): 9.0
MOOVA herbicidal effect rating (MOOVA (Monochoria); 0.2500 kg/ha): 9.0
